# Experiments:
# [1] = test system: survivin, Bcl-2, c-IAP-1, c-IAP-2, and TRAF-1; assay: Western blot of NF-κB-dependent anti-apoptotic gene products in BxPC-3 cells; assay type: cell-based, human; conditions: at 8 h
# Method: For Western blotting, the proteins from both cytoplasmic extracts and nuclear extracts were separated by SDS-polyacrylamide gel electrophoresis and transferred onto PVDF membranes (Millipore). The membranes were blocked in 5% nonfat dry milk-TBS-T (20 mM Tris-HCl, pH 7.5, 500 mM NaCl. 0.3% Tween 20) at room temperature (RT) for an hour and probed with anti-annexin 1, c-IAP-1, c-IAP-2, and TRAF-1 (Santa Cruz Biotechnology, Inc. CA), and anti-Bcl-2 antibodies (Cell Signaling Technology), in 5% nonfat dry milk-TBS-T at 4° C. overnight. The blots were washed three times with TBS-T for 5 min each wash and incubated with horseradish peroxidase-conjugated secondary antibody (Santa Cruz) in 5% nonfat dry milk-TBS-T at RT for an hour. After five washes with TBS-T, the blots were developed with the enhanced chemiluminescence system (ECL™ Western Blotting System, Amersham Biosciences) and exposed to x-ray film according to the manufacturer's instructions. Protein loading was normalized using anti-β-actin antibodies (Santa Cruz Biotechnology, Inc).
# [2] = test system: NF-κB; assay: NF-κB activity ELISA, HT-29 cells; assay type: cell-based, human; conditions: 3 h
# [3] = test system: NF-κB p65; assay: Co-localization of annexin 1 and p65 in intestinal epithelial cells of treated mice; assay type: in vivo; conditions: NO-ASA 100 mg/kg, 7 days
# Method: A mouse model of multiple intestinal neoplasia, the Min mice, and the congenic parent wild-type mice were used to test the in vivo action of NO-ASA in the induction of annexin 1. Both wild-type and Min mice were treated for 7 days with vehicle or NO-ASA 100 mg/kg. After 7 days of treatment, the mice were sacrificed and the epithelial cells were evaluated as in Example 6 by confocal microscopy.
# [4] = test system: BxPC-3 human pancreatic cancer cells; assay: MTT cell growth assay, BxPC-3; assay type: cell-based; conditions: 24 hours
# Method: The growth of the cells at 24 hours was determined using the MTT assay, which was carried out according to the manufacturer's protocol (Sigma). BxPC-3 cells were seeded in a 96-well plate and cultured in RPMI 1640 medium supplemented with 10% fetal bovine serum and 1% penicillin/streptomycin, as described above. […] MTT solution (M-0283) in an amount equal to 10% of the culture medium volume was then added to each well and the cells were incubated for 4 hours. The resulting MTT formazan crystals were dissolved by adding MTT Solvent (M-0408) directly to the culture in an amount equal to the original culture volume with gentle stirring and then quantitated by an ELISA Model 680 Microplate Reader (Biorad).
# [5] = test system: NF-κB; assay: EMSA of NF-κB binding to κB probe, nuclear extract of treated BxPC-3 cells; assay type: cell-based, human; conditions: BxPC-3 nuclear extract, 3 h
# Method: The gel shift assays were carried out according to the manufacturer's protocol (Panomics). Nuclear proteins (10 μg) from each sample were mixed with 10 ng biotinylated p65 double-stranded oligonucleotide probes (5′-[…]-3′ and its complement) (SEQ ID NO:9) in the presence of 1 μg Poly(I/C) DNA. The mixture was incubated at room temperature for 30 min. The binding complex was then resolved using a 6% polyacrylamide/glycerol gel in 0.5% Tris-borate-EDTA, transferred onto a nylon membrane, and fixed on the membrane by UV cross-linking The biotin-labeled probe was detected with streptavidin-horseradish peroxidase. Co-immunoprecipitation was performed as follows: about 500 μg of cell extracts were incubated overnight with 5 μg of agarose-conjugated anti-p65 (Santa Cruz Biotechnology) or anti-annexin 1 antibody (Santa Cruz, Calif.). The precipitate was washed five times with washing buffer (Santa Cruz Biotechnology), dissolved in 2× Laemmli buffer, boiled, and separated by SDS-PAGE and detected by Western blot analysis using ECL™ (Amersham Biosciences) as described above. Control experiments were performed by using rabbit IgG for p65 and mouse IgG2b for annexin 1, respectively (Santa Cruz Biotechnology). […]
# [6] = test system: HT-29 cells; assay: MTT cell growth assay, HT-29; assay type: cell-based, human; conditions: at 24 h; read-out: Inhibition of HT-29 cell growth IC50
# [7] = test system: annexin 1; assay: Induction of annexin 1 in HT-29 cells, Western blot; assay type: cell-based, human
# Method: The human pancreatic cancer cell line, BxPC-3, or the colon cancer cell line HT-29, both from ATCC (Manassas, Va.) were maintained and grown in RPMI 1640 or McCoy's 5A medium (Cellgro) supplemented with 10% fetal bovine serum (HyClone) and 1% penicillin/streptomycin (Cellgro) in a humidified incubator at 37° C. and 5% CO2.
# For the study of induction of annexin 1 by anti-inflammatory agents, the cells were incubated with either NO-ASA or Dex for 3 h. The cell fractions were obtained as described by Andrews and Faller (N. C. Andrews and D. V. Faller, Nucleic Acids Res. 19:2499 (1991)) with modification. Briefly, the cells were pelleted after treatment and washed three times with PBS. The cell pellets were resuspended in ice cold buffer A (10 mM HEPES, pH 7.9, 10 mM KCl, 1.5 mM MgCI2, 0.5 mM DTT, 0.5 mM PMSF) with protease inhibitor cocktail (Sigma) and incubated on ice for 15 min with occasional mixing by gently tapping the tube. The cell lysates were centrifuged up to 5000 rpm for three times. The supernatants were collected as cytoplasmic extracts. Nuclear pellets were washed with buffer A and resuspended in buffer C (20 mM HEPES, pH 7.9, 450 mM NaCl, 1.5 mM MgCI2, 0.2 mM EDTA, 0.5 mM DTT, 0.5 mM PMSF, 25% Glycerol) with protease inhibitor cocktail (Sigma) and incubated on ice for 30 min with occasional mixing to extract nuclear proteins. […]
# [8] = test system: NF-κB p65; assay: Co-immunoprecipitation of annexin 1 with p65, HT-29 cells; assay type: cell-based, human; conditions: 3 h, NO-ASA 20 μM or Dex 4 μM
# Method: The gel shift assays were carried out according to the manufacturer's protocol (Panomics). Nuclear proteins (10 μg) from each sample were mixed with 10 ng biotinylated p65 double-stranded oligonucleotide probes (5′-[…]-3′ and its complement) (SEQ ID NO:9) in the presence of 1 μg Poly(I/C) DNA. The mixture was incubated at room temperature for 30 min. The binding complex was then resolved using a 6% polyacrylamide/glycerol gel in 0.5% Tris-borate-EDTA, transferred onto a nylon membrane, and fixed on the membrane by UV cross-linking The biotin-labeled probe was detected with streptavidin-horseradish peroxidase. Co-immunoprecipitation was performed as follows: about 500 μg of cell extracts were incubated overnight with 5 μg of agarose-conjugated anti-p65 (Santa Cruz Biotechnology) or anti-annexin 1 antibody (Santa Cruz, Calif.). The precipitate was washed five times with washing buffer (Santa Cruz Biotechnology), dissolved in 2× Laemmli buffer, boiled, and separated by SDS-PAGE and detected by Western blot analysis using ECL™ (Amersham Biosciences) as described above. Control experiments were performed by using rabbit IgG for p65 and mouse IgG2b for annexin 1, respectively (Santa Cruz Biotechnology).
substance,measurement,setting,value
nitric oxide-donating aspirin [NO-ASA],"expression of NF-κB-dependent anti-apoptotic genes survivin, Bcl-2, c-IAP-1, c-IAP-2, TRAF-1",[1],suppressed the expression
same,NF-κB activity,[2],inhibited NF-κB activity in a concentration-dependent manner
same,colocalization of annexin 1 and p65 in intestinal cells,[3]; Min mice,greatly enhanced
same,colocalization of annexin 1 and p65 in intestinal cells,[3]; wild type mice,modest but significant colocalization
same,growth of BxPC-3 cells,[4],inhibits the growth
same,binding of NF-κB to the DNA probe (EMSA),[5],inhibited the binding of NF-κB to the DNA probe in a concentration-dependent manner
same,binding of NF-κB to the DNA probe (EMSA) at 20 μM,[5]; 20 μM NO-ASA,substantial suppression of binding
same,IC50,[6],18.8 µM
same,expression of annexin 1,[7],induced
same,co-immunoprecipitation of annexin 1 with p65,[8],co-immunoprecipitated with p65
